pIC50: −log10 of the molar value.
The molecules below were run against Aurora kinase B (Homo sapiens, UniProt Q96GD4) (assay: Aurora B Kinase Assay).
Chain of Aurora kinase B (Q96GD4 whole entry): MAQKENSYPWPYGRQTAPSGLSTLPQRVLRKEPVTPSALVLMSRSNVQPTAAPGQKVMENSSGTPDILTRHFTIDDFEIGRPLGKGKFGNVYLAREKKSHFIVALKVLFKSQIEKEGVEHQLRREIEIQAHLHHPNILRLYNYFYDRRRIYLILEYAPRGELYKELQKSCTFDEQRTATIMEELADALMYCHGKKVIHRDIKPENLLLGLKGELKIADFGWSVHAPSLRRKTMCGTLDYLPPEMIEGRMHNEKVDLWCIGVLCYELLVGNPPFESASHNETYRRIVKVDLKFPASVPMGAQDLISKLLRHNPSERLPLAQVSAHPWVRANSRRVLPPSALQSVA

Compound | pIC50
O=c1c(O)c(-c2cc(O)c(O)c(O)c2)oc2cc(O)cc(O)c12 | 5.40
COc1cc(-c2oc3cc(O)cc(O)c3c(=O)c2O)ccc1O | 5.36
O=c1c(O)c(-c2ccc(O)c(O)c2)oc2c(O)c(O)cc(O)c12 | 5.39
O=c1c(O)c(-c2ccc(O[C@@H]3O[C@H](CO)[C@@H](O)[C@H](O)[C@H]3O)c(O)c2)oc2cc(O)cc(O)c12 | 4.53
O=c1c(O)c(-c2ccc(O)cc2O)oc2cc(O)cc(O)c12 [2-(2,4-dihydroxyphenyl)-3,5,7-trihydroxychromen-4-one] | 5.33
O=c1c(O)c(-c2ccc(O)c(O)c2)oc2c(O[C@@H]3O[C@H](CO)[C@@H](O)[C@H](O)[C@H]3O)c(O)cc(O)c12 [2-(3,4-dihydroxyphenyl)-3,5,7-trihydroxy-8-[(2S,3R,4S,5S,6R)-3,4,5-trihydroxy-6-(hydroxymethyl)oxan-2-yl]oxychromen-4-one] | 4.96
O=c1c(O)c(-c2ccc(O)c(O)c2)oc2cc(O)cc(O)c12 [2-(3,4-dihydroxyphenyl)-3,5,7-trihydroxy-chromone;hydrate] | 5.40
O=c1c(O[C@@H]2O[C@H](CO)[C@@H](O)[C@H](O)[C@H]2O)c(-c2ccc(O)c(O)c2)oc2cc(O)cc(O)c12 [2-(3,4-dihydroxyphenyl)-5,7-dihydroxy-3-[(2S,3R,4S,5S,6R)-3,4,5-trihydroxy-6-(hydroxymethyl)oxan-2-yl]oxychromen-4-one] | 4.97
O=c1cc(-c2ccc(O)c(O)c2)oc2cc(O)cc(O)c12 [2-(3,4-dihydroxyphenyl)-5,7-dihydroxy-4H-chromen-4-one] | 5.41
COc1ccc(-c2cc(=O)c3c(OC)c(OC)c(OC)cc3o2)cc1OC [2-(3,4-dimethoxyphenyl)-5,6,7-trimethoxy-4H-chromen-4-one] | 5.27
O=c1c(O)c(-c2ccccc2O)oc2cc(O)cc(O)c12 [3,5,7-trihydroxy-2-(2-hydroxyphenyl)chromen-4-one] | 4.75
COc1ccc(-c2oc3cc(O)cc(O)c3c(=O)c2O)cc1O [3,5,7-trihydroxy-2-(3-hydroxy-4-methoxyphenyl)-4H-chromen-4-one] | 5.13
COc1cc(-c2cc(=O)c3c(O)c(OC)c(OC)c(OC)c3o2)cc(OC)c1OC [5-hydroxy-6,7,8-trimethoxy-2-(3,4,5-trimethoxyphenyl)chromen-4-one] | 4.37
O=c1cc(-c2ccc(O)cc2)oc2cc(O[C@@H]3O[C@H](CO)[C@@H](O)[C@H](O)[C@H]3O[C@@H]3OC[C@](O)(CO)[C@H]3O)cc(O)c12 [7-[(2S,3R,4S,5S,6R)-3-[(2S,3R,4R)-3,4-dihydroxy-4-(hydroxymethyl)oxolan-2-yl]oxy-4,5-dihydroxy-6-(hydroxymethyl)oxan-2-yl]oxy-5-hydroxy-2-(4-hydroxyphenyl)chromen-4-one] | 4.92
O=C(O)[C@H]1O[C@@H](Oc2cc3oc(-c4ccccc4)cc(=O)c3c(O)c2O)[C@H](O)[C@@H](O)[C@@H]1O [(2S,3S,4S,5R,6S)-6-(5,6-dihydroxy-4-oxo-2-phenyl-4H-chromen-7-yloxy)-3,4,5-trihydroxy-tetrahydro-2H-pyran-2-carboxylic acid] | 4.91
O=c1cc(-c2ccc(O)cc2)oc2cc(O)cc(O)c12 [Naringenin, 18] | 5.40
O=c1c(O)c(-c2ccccc2)oc2cc(O)cc(O)c12 [norizalpinin] | 5.01

More lines, in order of rising pIC50, values ahead:

pIC50 | Compound
5.37 | O=c1c(O)c(-c2ccccc2)oc2ccccc12 [3-hydroxy-2-phenyl-4H-chromen-4-one]
5.39 | O=c1cc(-c2ccccc2)oc2cc(O)c(O)c(O)c12
5.39 | O=c1c(O)c(-c2ccc(O)cc2)oc2cc(O)cc(O)c12
5.41 | C[C@@H]1O[C@@H](Oc2c(-c3cc(O)c(O)c(O)c3)oc3cc(O)cc(O)c3c2=O)[C@H](O)[C@H](O)[C@H]1O [5,7-dihydroxy-3-[(2S,3R,4R,5R,6S)-3,4,5-trihydroxy-6-methyloxan-2-yl]oxy-2-(3,4,5-trihydroxyphenyl)chromen-4-one]
5.41 | O=c1cc(-c2ccc(O)cc2)oc2cc(O)c(O)c(O)c12 [5,6,7-trihydroxy-2-(4-hydroxyphenyl)-4H-chromen-4-one]
5.55 | COc1cc(-c2oc3cc(O)ccc3c(=O)c2O)ccc1O [3,7-dihydroxy-2-(4-hydroxy-3-methoxyphenyl)chromen-4-one]
5.58 | O=c1c(O)c(-c2ccc(O)c(O)c2)oc2cc(O)ccc12 [2-(3,4-dihydroxyphenyl)-3,7-dihydroxy-chromen-4-one]
5.58 | O=c1c(O)c(-c2ccc(O)c(O)c2)oc2cc(O)c(O)c(O)c12 [2-(3,4-dihydroxyphenyl)-3,5,6,7-tetrahydroxy-4H-chromen-4-one]

Source: BindingDB's records for doi:10.1111/cbdd.12445 (Konkuk University, 2015)
